Experimental data published in article PMC12132910, “A Novel Inhibitor against the Bromodomain Protein 1 of the Malaria Pathogen Plasmodium Falciparum” (Chemmedchem, 2025).
Where “and” joins values, the source holds several entries; their conditions need not be identical. Equal entries are not always repeated. Where two headings read alike, the source gives them in different places.

Legend:
PfBDP1-BRD = PfBDP1-BRD (Plasmodium falciparum, UniProt Q8IJ72); experiment: Isothermal titration calorimetry (ITC) with PfBDP1-BRD; assay type: binding; conditions: 25 °C
Experimental: and incubated at 37 °C and 180 rpm until an OD600 of ~2.5. The culture was cooled to 18 °C, induced with 0.2 mM IPTG, and incubated for 16 hours overnight. Cells were harvested by centrifugation (Beckman Coulter Avanti J-26 XP, Rotor: JLA 8.100 Rotor) at 5000 x g for 15 min at 4 °C.
The cell pellet was resuspended in PBS (1:3 w/v). The suspension was lysed by sonication (Branson Digital Sonifier 250; 15 min, 3 sec pulse, 10 sec pause, amplitude 70%) at 4 °C. Insoluble debris was removed by centrifugation (Beckmann Coulter Avanti-J30 I, Rotor: 30.50Ti) at 80,000 x g for 45 min at 4 °C. The lysate was then sterile-filtered (0.45 µm) and purified by […] affinity chromatography. The protein was cleaved using either PreScission Protease (PfBDP1-BRD-construct) or TEV Protease (PvBDP1-BRD-construct) separating the bromodomain from the fusion protein. Further separation of the cleaved GST tag and any remaining GST fusion protein was achieved by an additional round of GST affinity chromatography.
Specifically, we used Glutathione Sepharose High Performance (HP) resin (Cytiva, 17-5279-01). A 25 mL batch of resin was self-packed into a column, equilibrated with PBS, and used to purify GST-tagged proteins. The cleaved bromodomain, which […]
Following this step, the bromodomain protein was further purified by size exclusion chromatography using a HiLoad 26/600 Superdex 75 pg column (GE Healthcare).
Isothermal Titration Calorimetry (ITC)
Affinity was measured using a MicroCal VP-ITC microcalorimeter (Malvern Instruments). Measurements were performed at 25 °C with the ligand (0.04 mM) in PBS (Phosphate buffer saline; 137 mM NaCl, 10 mM phosphate, 2.7 mM KCl; pH 7.4) buffer present in the cell and the protein (0.4 mM) injected via a stirred syringe (351 revolutions per minute) in 5 min intervals (1 injection of 6 µL and 20 injections of 13.5 µL). Solutions were degassed prior to measurements. The first injection was discarded to account for any potential diffusion during equilibration. Automated baseline correction and peak integration were conducted using NITPIC[1,2]. Analysis, fitting, and thermodynamic calculations were performed using a binary interaction model in SEDPHAT[3], and plots were generated using GUSSI[4]. Confidence intervals were calculated using the “Automatic Confidence Interval Search with Projection” method in SEDPHAT. During the confidence level search, the confidence level was set to 0.99, and Simplex optimization was applied prior to Marquardt-Levenberg at each step. Error Surface Projection was performed by alternating between Simplex and Marquardt-Levenberg algorithms until convergence was achieved.
Supporting Table S1. Amino acid sequences of proteins used in this […]
PfBDP1-BRD Construct (Uniprot: Q8IJ72; Residues: 333-456)
The construct includes an N-terminal GST-tag followed by a Prescission protease cleavage site. After cleavage, the purified protein retains an additional […] sequence at […]
the N-terminus, which originates from the vector's multiple cloning site. […]

[1] = system: 3D7::PfBDP1HADD parasites; experiment: Dose-response assay in conditional PfBDP1 knockdown parasites; assay type: cell-based, Plasmodium falciparum; conditions: 10 nM Shld1 compared to 500 nM Shld1, 72 h
Text: To validate whether the compounds indeed target the BRD of PfBDP1, we utilized a conditional KD system to modulate the expression levels of PfBDP1 in situ.^[ [15] ^] In the 3D7::PfBDP1HADD line, PfBDP1 is fused at its C‐terminus to a ligand‐regulatable FKBP destabilization domain (DD) that targets the fusion protein for proteasomal degradation but can be stabilized by the Shield1 ligand, and 3xHA epitope tags for detection ^11. […] In contrast, the EC50 of chloroquine was unchanged.
A) Western Blot analysis of 3D7::PfBDP1HADD parasites cultivated in the presence of Shield1 (Shld) in concentrations ranging from 0 to 500 nM over 72 h in duplicates. PfBDP1HADD was detected by anti‐HA antibodies. Histone 3 (H3) was probed as a loading control. […] Growth was determined relative to DMSO controls for each condition after 72 h of culture. N = 4 replicates. […] Binding of PfBDP1HA to target loci was calculated as enrichment relative to histone H3 ChIP performed in parallel. Shown are individual values and median of one representative experiment with technical duplicates. Paired t‐test, p = 0.0015. […]
resistant strain K1, MRA-159, contributed by Dennis E. Kyle. The NF54::PfBDP1HA parasite line was generated by transfection of NF54 parasites with the plasmid pSLI_PfBDP1_3xHA and selection linked integration of the construct in the presence of G418[21]. […]
(§1) Malaria SYBR green I based fluorescence assay
SYBR Green I based fluorescence assays to determine dose-response curves were performed essentially as described previously (Leidenberger et al., 2017). […] After 72 hours, cultures were lysed in lysis buffer (20 mM Tris-HCl, 5 mM EDTA, 0.008% saponin (Sigma-Aldrich), 0.08% Triton X (Sigma-Aldrich), 1:10,000 SYBR Green I dye (Invitrogen)) and fluorescence was measured in a Fluoroskan Ascent FL reader (excitation: 485 nm, emission: 530 nm). […]

[2] = system: P. falciparum K1 (multidrug resistant); experiment: Malaria SYBR green I based fluorescence assay, dose response, K1; assay type: cell-based; conditions: Plasmodium falciparum, K1, 72 h, read-out: EC50 K1
Experimental: (§2) The BRDi compounds had modest activity against all three strains (Table 2 ). […]
resistant strain K1, MRA-159, contributed by Dennis E. Kyle. […]
(§3) Shield1. Parasites were propagated in human red blood cells (blood group 0+) obtained from the Bavarian Red Cross service (BRK) and cultivated under standard conditions in RPMI 1640 (ThermoFisher) supplemented with 0.5% Albumax
(§4) (ThermoFisher), 20 µg/ml Gentamycin, 25 mM Hepes (pH 7.3), and 0.02% hypoxanthine in an atmosphere of 1% O2, 5% CO2, 94% N2.
as §1
(§5) SYBR Green I based fluorescence assays to determine dose-response curves were performed essentially as described previously (Leidenberger et al., 2017). Briefly, parasite cultures were diluted to 1% ring stage parasitemia and cultivated at 2.5% haematocrit in 96 well plates in the presence of serial half-log dilutions of the compounds ranging from 100 µM to 10 nM or DMSO (dimethyl sulfoxide) corresponding to the highest concentration (0.1%). Chloroquine (C6628, Sigma-Aldrich) was used as control that was not expected to target PfBDP1 and was titrated from 5 µM to 1.6 nM. After 72 hours, cultures were lysed in lysis buffer (20 mM Tris-HCl, 5 mM EDTA, 0.008% saponin (Sigma-Aldrich), 0.08% Triton X (Sigma-Aldrich), 1:10,000 SYBR Green I dye (Invitrogen)) and fluorescence was measured in a Fluoroskan Ascent FL reader (excitation: 485 nm, emission: 530 nm). […]

P. falciparum NF54 = experiment: Malaria SYBR green I based fluorescence assay, dose response, NF54; assay type: cell-based; conditions: Plasmodium falciparum, blood stage culture, 72 hours, mean (SD), 1 to 3 biological replicates
Experimental: as §2, §3, §4, §1, §5

P. falciparum 3D7 = experiment: Malaria SYBR green I based fluorescence assay, dose response, 3D7; assay type: cell-based; conditions: Plasmodium falciparum, blood stage culture, 72 hours, mean (SD), 1 to 3 biological replicates
Experimental: as §2, §3, §4, §1, §5

Chain of PfBDP1-BRD (Q8IJ72 entry or part of it): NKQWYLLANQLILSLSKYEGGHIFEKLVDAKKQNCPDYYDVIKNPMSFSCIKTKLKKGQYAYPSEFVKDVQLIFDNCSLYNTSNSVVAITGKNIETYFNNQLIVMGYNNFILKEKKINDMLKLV

| Structure (SMILES) | Kd (PfBDP1-BRD; PBS pH 7.4, read-out: K D) | other results |
| --- | --- | --- |
| Cc1[nH]c(-c2cccc([N+](=O)[O-])c2)c2c1C(=O)CCCC2 [RMM7, 3-Methyl-1-(3-nitrophenyl)-5,6,7,8-tetrahydrocyclohepta[c]pyrrol-4(2H)-one] | 16.9 µM | – |
| Cc1[nH]c(-c2cccc(NS(C)(=O)=O)c2)c2c1C(=O)CCCC2 [RMM11] | 4.7 µM | – |
| Cc1[nH]c(-c2ccc(C(N)=O)cc2)c2c1C(=O)CCCC2 [RMM15] | 4.49 µM | – |
| Cc1ccc(NS(C)(=O)=O)cc1-c1[nH]c(C)c2c1CCCCC2=O [RMM20] | 8.17 µM | – |
| Cc1[nH]c(-c2ccccc2C(F)(F)F)c2c1C(=O)CCCC2 [RMM4] | 2.9 µM and 2.94 µM | – |
| Cc1cc(C(N)=O)cc(C)c1-c1[nH]c(C)c2c1CCCCC2=O [RMM25, 3,5-Dimethyl-4-(3-methyl-4-oxo-2,4,5,6,7,8-hexahydrocyclohepta[c]pyrrol-1-yl)benzamide] | 0.896 µM | change of sensitivity (dose-response, EC50) under partial PfBDP1 knockdown [1]: moderately increased sensitivity; EC50 [2]: 7.35 µM; EC50 (P. falciparum NF54): 12.2 µM; EC50 (P. falciparum 3D7): 19 µM |
| Cc1[nH]c(-c2cccc(N)c2)c2c1C(=O)CCCC2 [MPM2] | 6.7 µM and 6.74 µM | – |
| Cc1[nH]c(-c2ccc(C(=O)N(C)C)cc2)c2c1C(=O)CCCC2 [RMM17] | 42.4 µM | – |
| Cc1ccc(-c2[nH]c(C)c3c2CCCCC3=O)cc1 [RMM14] | 11.7 µM | – |
| CNc1cccc(-c2[nH]c(C)c3c2CCCCC3=O)c1 [RMM8, 3-Methyl-1-(3-(methylamino)phenyl)-5,6,7,8-tetrahydrocyclohepta[c]pyrrol-4(2H)-one] | 9.16 µM | – |
| CC(=O)Nc1cccc(-c2[nH]c(C)c3c2CCCCC3=O)c1 [RMM10] | 6.96 µM | – |
| Cc1cc(C#N)cc(C)c1-c1[nH]c(C)c2c1CCCCC2=O [RMM24, 3,5-dimethyl-4-(3-methyl-4-oxo-2,4,5,6,7,8-hexahydrocyclohepta[c]pyrrol-1-yl)benzonitrile] | 1.22 µM | – |
| Cc1[nH]c(-c2cccc(S(N)(=O)=O)c2)c2c1C(=O)CCCC2 [RMM13] | 4.9 µM and 4.93 µM | – |
| CNC(=O)c1ccc(-c2[nH]c(C)c3c2CCCCC3=O)cc1 [RMM16] | 5.14 µM | – |
| CCN(CC)CCCC(C)Nc1ccnc2cc(Cl)ccc12 (centres unmarked) [chloroquine, Chloroquine, reference compound] | – | change of sensitivity (dose-response, EC50) under partial PfBDP1 knockdown [1]: unchanged |
| Cc1[nH]c(-c2cccc(NS(C)(=O)=O)c2C)c2c1C(=O)CCCC2 [RMM21, N-(2-Methyl-3-(3-methyl-4-oxo-2,4,5,6,7,8-hexahydrocyclohepta[c]pyrrol-1-yl)phenyl)methanesulfonamide] | 2.76 µM | – |
| Cc1[nH]c(-c2ccccc2)c2c1C(=O)CCCC2 [MPM3, 3-Methyl-1-phenyl-5,6,7,8-tetrahydrocyclohepta[c]pyrrol-4(2H)-one] | 10 µM and 10.4 µM | – |
| Cc1[nH]c(-c2cccc(C(N)=O)c2)c2c1C(=O)CCCC2 [MPM8] | 7.45 µM | – |
| Cc1[nH]c(-c2ccc(C#N)cc2)c2c1C(=O)CCCC2 [RMM18] | 4.54 µM | – |
| Cc1ccccc1-c1[nH]c(C)c2c1CCCCC2=O [RMM2] | 3.9 µM and 3.94 µM | – |
| COc1ccccc1-c1[nH]c(C)c2c1CCCCC2=O [RMM5] | 7.13 µM | – |
| Cc1[nH]c(-c2ccc(S(N)(=O)=O)cc2)c2c1C(=O)CCCC2 [RMM19] | 6.39 µM | – |
| Cc1[nH]c(-c2ccccc2Cl)c2c1C(=O)CCCC2 [RMM1] | 5.8 µM and 5.81 µM | – |
| Cc1cc(C#N)ccc1-c1[nH]c(C)c2c1CCCCC2=O [RMM22, 3-Methyl-4-(3-methyl-4-oxo-2,4,5,6,7,8-hexahydrocyclohepta[c]pyrrol-1-yl)benzonitrile] | 2.34 µM | – |
| Cc1[nH]c(-c2cc(N)ccc2Cl)c2c1C(=O)CCCC2 [MPM6, reference compound] | – | Kd (PfBDP1-BRD; K D, PBS pH 7.4): 4.53 µM |
| Cc1cccc(-c2[nH]c(C)c3c2CCCCC3=O)c1 [RMM6, 3-Methyl-1-(m-tolyl)-5,6,7,8-tetrahydrocyclohepta[c]pyrrol-4(2H)-one] | 6.2 µM and 6.22 µM | – |
| Cc1[nH]c(-c2cccc(N(C)C)c2)c2c1C(=O)CCCC2 [RMM9, 1-(3-(dimethylamino)phenyl)-3-methyl-5,6,7,8-tetrahydrocyclohepta[c]pyrrol-4(2H)-one] | 8.03 µM | – |
| CCc1ccccc1-c1[nH]c(C)c2c1CCCCC2=O [RMM3] | 9.17 µM | – |
